# Results published in PMC3972617 (Xenobiotica; the fate of foreign compounds in biological …, 2013).
# Assays:
# [1] = system: indomethacin-induced small intestinal injury; assay: Indomethacin-induced enteropathy in mice
# [2] = system: ketoprofen-induced small intestinal injury; assay: Ketoprofen-induced enteropathy in mice; format: in vivo, male C57BL/6J mice; conditions: Inh-1 10 μg/mouse po bid for 2 days before ketoprofen 100 mg/kg ip; 18 h
# [3] = system: diclofenac (DCF)-induced small intestinal injury; assay: Diclofenac-induced enteropathy in mice; format: in vivo, male C57BL/6J mice
# [4] = system: primary mouse hepatocytes; assay: LDH release cytotoxicity in cultured primary mouse hepatocytes; format: cell-based; conditions: 24 h exposure
# [5] = Pharmacokinetic profiling of Inhibitor-1 in mice; format: in vivo; conditions: for AUC(0-t): AUC0–24 h
# [6] = system: diclofenac (DCF)-induced small intestinal injury; conditions: Inh-1 given prior to DCF (60 mg/kg, ip); ref LoGuidice et al., 2012; cited from earlier work
# [7] = single oral dose Inh-1 10 μg/mouse 3 h after DCF 60 mg/kg ip, 18 h after DCF
# [8] = C57BL/6J, mouse, plasma, iv, 3 mg/kg, Inh-1 3 mg/kg iv, vehicle pretreatment
# [9] = C57BL/6J, mouse, plasma, po, 3 mg/kg, Inh-1 3 mg/kg po, vehicle pretreatment
structure (smiles),measurement,setting,value
"COc1ccc2c(c1)c(CC(=O)O)c(C)n2C(=O)c1ccc(Cl)cc1 [indomethacin, Indomethacin, reference compound]",small intestinal mucosal ulceration,"[1]; single dose of indomethacin alone 10 mg/kg ip, 18 h, majority of lesions in quartiles 2 and 3",marked mucosal ulceration
"CCOc1ccc(NC(=S)N(CCO)Cc2cc3cc(C)cc(C)c3[nH]c2=O)cc1 [Inh-1, 1-((6,8-dimethyl-2-oxo-1,2-dihydroquinolin-3-yl)methyl)-3-(4-ethoxyphenyl)-1-(2-hydroxyethyl)thiourea]",co-treated mice with an ulcer (one small ulcer),[2],1/11
same,"protection against DCF-induced enteropathy, post-treatment","[3]; Inh-1 administered 3-h post-DCF (60 mg/kg, ip)",partial protection
same,average area of total ulcers per mouse versus DCF alone,[3]; [7],not significantly different
same,reduction of average ulcer number per mouse versus DCF controls,[3]; [7],71%
same,LDH release versus solvent controls,[4]; Inh-1 100 μM alone,did not significantly increase LDH release
same,effect on DCF concentration-toxic response curve (LDH release),[4]; Inh-1 100 μM with DCF 500 or 1000 μM,did not alter the concentration-toxic response curve
same,AUC(0-t),[5]; [8],4380 ng·h/mL
same,Cmax,[5]; [8],7190 ng/mL
same,half-life,"[5]; C57BL/6J, mouse, plasma, iv, 3 mg/kg, T1/2, Inh-1 3 mg/kg iv, vehicle pretreatment",42 min
same,AUC(0-t),[5]; [9],925 ng·h/mL
same,Cmax,[5]; [9],513 ng/mL
same,Tmax,"[5]; C57BL/6J, mouse, plasma, po, 3 mg/kg, Tmax, Inh-1 3 mg/kg po, vehicle pretreatment",30 min
same,time at which maximal plasma levels were attained,[5]; single oral administration of Inh-1 3 mg/kg,30 min
same,"protection against DCF-induced enteropathy, pretreatment",[6],complete protection
same,decrease of total area of indomethacin-induced intestinal injury,"[1]; Inh-1 10 μg/mouse po bid for 2 days, last dose 1 h before indomethacin 10 mg/kg ip, 18 h post-dose",89%
same,NBT staining of jejunal mucosa (oxidoreductive stress),"[1]; Inh-1/indomethacin co-treated mice, 1 mM nitroblue tetrazolium incubation",remained unstained
"O=C(O)Cc1ccccc1Nc1c(Cl)cccc1Cl [DCF, diclofenac, reference compound]",LDH release from the cells,[4]; DCF 1000 μM,significant increases in LDH release
